Converted amounts (≈) assume the structure as drawn.
Columns and labels:
[1] = MTT assay, cytotoxic concentration (CC50) on Vero cells; format: cell-based; settings: African green monkey, mean ± SD, three repeats
Method: (§1) The cytotoxic potential was measured against Vero cells as well as MCF-7, HepG-2, and THP-1 cell lines provided from VACSERA, Agouza, Cairo, Egypt using a microplate 3-(4,5-dimethythiazole-2yl)-2,5-diphenyl-tetrazolium bromide (MTT) method (Ashour et al. [2006]; Njeru and Muema [2007]). All experiments were repeated three times with doxorubicin (Sigma, USA) as a positive control and 0.1% DMSO media as the negative control, respectively.
(§2) All statistical analyses were performed using GraphPad Prism version 9.2.0 to calculate the half-maximal inhibitory concentration (IC50) and the half-maximal cytotoxic concentration (CC50) where the level of significance was set at ([…]). Quantitative data were expressed as mean ± standard deviation (SD). GraphPad Prism version 9.2.0 was also used to create multiple bar charts of the cytotoxic activity and cell viability.

HepG-2 cell line = experiment: MTT cytotoxicity assay, HepG-2; format: cell-based, human; settings: for IC50: Homo sapiens, HepG2, HepG-2 liver cancer cell line, MTT assay, mean ± SD; for SI, HepG-2: selectivity index = CC50 (Vero) / IC50 (HepG-2)
Method: as §1
(§3) The selectivity index (SI) was obtained after dividing the IC50 value of Vero cells (which can be expressed as CC50) by the specific IC50 of cancer cell lines. High (SI) indicates high anticancer activity and low cellular toxicity. Selectivity was considered to be valuable for those with (SI) greater than three (Oliveira et al. [2015]; Tsemeugne et al. [2021]; Yousefbeyk et al. [2022]).
as §2

THP-1 cell line = experiment: MTT cytotoxicity assay, THP-1; format: cell-based, human; settings: for IC50: Homo sapiens, THP-1 leukaemia cell line, MTT assay, mean ± SD; for SI, THP-1: selectivity index = CC50 (Vero) / IC50 (THP-1)
Method: as §1, §3, §2

MCF-7 cell line = experiment: MTT cytotoxicity assay, MCF-7; format: cell-based, human; settings: for IC50: Homo sapiens, MCF7, MCF-7 breast cancer cell line, MTT assay, mean ± SD; for SI, MCF-7: selectivity index = CC50 (Vero) / IC50 (MCF-7)
Method: as §1, §3, §2

## CC=C1C(OC)OC=C2C(=O)OC3CC(C(C)CO)C(COC(=O)CC21)C3C (single isomer, unassigned; (-)) [Compound 1, (-)-1-Methoxyjasmigenin]
[1]
  CC50: 61.7 ± 1.26 µg/mL (≈ 156 µM)
HepG-2 cell line
  IC50: 59.8 ± 1.45 µg/mL (≈ 152 µM)
  SI, HepG-2: 1.03
THP-1 cell line
  IC50: 91.5 ± 14.9 µg/mL (≈ 232 µM)
  SI, THP-1: 0.67
MCF-7 cell line
  IC50: 78.9 ± 1.79 µg/mL (≈ 200 µM)
  SI, MCF-7: 0.78

## CC(CO)C1CC2OC(=O)C3=COC(C)C(C=O)C3CC(=O)OCC1C2C (single isomer, unassigned; (-)) [Compound 2, (-)-1-Methyl-9-aldojasmigenin]
[1]
  CC50: 60.5 ± 2.72 µg/mL (≈ 159 µM)
HepG-2 cell line
  IC50: 43.3 ± 4.78 µg/mL (≈ 114 µM)
  SI, HepG-2: 1.40
THP-1 cell line
  IC50: 68.9 ± 9.71 µg/mL (≈ 181 µM)
  SI, THP-1: 0.88
MCF-7 cell line
  IC50: 60.6 ± 2.3 µg/mL (≈ 159 µM)
  SI, MCF-7: 1.00

## CC=C1C(OC2OC(CO)C(O)C(O)C2O)OC=C2C(=O)OC3CC(C(C)CO)C(COC(=O)CC21)C3C (centres unmarked) [Compound 3, jasminin]
[1]
  CC50: 44.7 ± 1.84 µg/mL (≈ 82.4 µM)
HepG-2 cell line
  IC50: 44.2 ± 4.32 µg/mL (≈ 81.5 µM)
  SI, HepG-2: 1.01
THP-1 cell line
  IC50: 82.7 ± 15.7 µg/mL (≈ 152 µM)
  SI, THP-1: 0.54
MCF-7 cell line
  IC50: 28.6 ± 1.18 µg/mL (≈ 52.7 µM)
  SI, MCF-7: 1.57

## CC=C1C(OC2OC(CO)C(O)C(O)C2O)OC=C2C(=O)OCC(C)C3(O)CCC(C)C3COC(=O)CC21 (centres unmarked) [Compound 4, isojasminin]
[1]
  CC50: 102 ± 3.03 µg/mL (≈ 187 µM)
HepG-2 cell line
  IC50: 33.5 ± 2.32 µg/mL (≈ 61.7 µM)
  SI, HepG-2: 3.03
THP-1 cell line
  IC50: 51.1 ± 10.3 µg/mL (≈ 94.1 µM)
  SI, THP-1: 1.99
MCF-7 cell line
  IC50: 43.1 ± 3.02 µg/mL (≈ 79.5 µM)
  SI, MCF-7: 2.35

## CC=C1C(OC2OC(CO)C(O)C(O)C2O)OC=C(C(=O)OC)C1CC(=O)OCC(C)C1CC2OC(=O)C3=COC(OC4OC(CO)C(O)C(O)C4O)C(=CC)C3CC(=O)OCC1C2C (centres unmarked) [Compound 5, jasmoside]
[1]
  CC50: 210 ± 5.05 µg/mL (≈ 226 µM)
HepG-2 cell line
  IC50: 66.5 ± 8.15 µg/mL (≈ 71.6 µM)
  SI, HepG-2: 3.16
THP-1 cell line
  IC50: 27.6 ± 4.63 µg/mL (≈ 29.7 µM)
  SI, THP-1: 7.62
MCF-7 cell line
  IC50: 41.3 ± 1.77 µg/mL (≈ 44.5 µM)
  SI, MCF-7: 5.09

## O=c1ccc2ccccc2o1 [Compound 6, coumarin]
[1]
  CC50: 196 ± 13.3 µg/mL (≈ 1340 µM)
HepG-2 cell line
  IC50: 165 ± 7.08 µg/mL (≈ 1130 µM)
  SI, HepG-2: 1.19
THP-1 cell line
  IC50: 296 ± 25.7 µg/mL (≈ 2020 µM)
  SI, THP-1: 0.66
MCF-7 cell line
  IC50: 194 ± 8.8 µg/mL (≈ 1330 µM)
  SI, MCF-7: 1.01

## OC[C@@H](O)[C@@H](O)[C@H](O)[C@H](O)CO [Compound 7, D-mannitol]
[1]
  CC50: 173 ± 6.2 µg/mL (≈ 951 µM)
HepG-2 cell line
  IC50: 69.1 ± 12.3 µg/mL (≈ 379 µM)
  SI, HepG-2: 2.52
THP-1 cell line
  IC50: 214 ± 22.1 µg/mL (≈ 1180 µM)
  SI, THP-1: 0.81
MCF-7 cell line
  IC50: 161 ± 11.9 µg/mL (≈ 882 µM)
  SI, MCF-7: 1.09

## COc1cccc2c1C(=O)c1c(O)c3c(c(O)c1C2=O)C[C@@](O)(C(=O)CO)C[C@@H]3O[C@H]1C[C@H](N)[C@H](O)[C@H](C)O1 [Doxorubicin, doxorubicin, reference compound]
[1]
  CC50: 116 ± 6.1 µg/mL (≈ 213 µM)
HepG-2 cell line
  IC50: 31.6 ± 6.58 µg/mL (≈ 58.2 µM)
  SI, HepG-2: 3.65
THP-1 cell line
  IC50: 47.8 ± 7.03 µg/mL (≈ 88 µM)
  SI, THP-1: 2.41
MCF-7 cell line
  IC50: 52.8 ± 5.36 µg/mL (≈ 97.1 µM)
  SI, MCF-7: 2.19

Source: publication PMC9377236, “Cytotoxic effects of extracts obtained from plants of the Oleaceae family: bio-guided isolation and molecular docking of new secoiridoids from Jasminum humile” (Pharmaceutical Biology, 2022)
